pKi: −log10 of the molar value. Structures can show the parent of a compound that is named as a salt.
molecular target: T1, alpha-1-receptor (Rattus norvegicus, UniProt P15823); experiment: Radioligand binding, alpha-1 adrenoceptor, rat liver homogenates, [3H]-prazosin; conditions: not given
T1 construct: rat liver homogenates; from tissue; host or cells: rat liver homogenate
T1 sequence (P15823 1-515): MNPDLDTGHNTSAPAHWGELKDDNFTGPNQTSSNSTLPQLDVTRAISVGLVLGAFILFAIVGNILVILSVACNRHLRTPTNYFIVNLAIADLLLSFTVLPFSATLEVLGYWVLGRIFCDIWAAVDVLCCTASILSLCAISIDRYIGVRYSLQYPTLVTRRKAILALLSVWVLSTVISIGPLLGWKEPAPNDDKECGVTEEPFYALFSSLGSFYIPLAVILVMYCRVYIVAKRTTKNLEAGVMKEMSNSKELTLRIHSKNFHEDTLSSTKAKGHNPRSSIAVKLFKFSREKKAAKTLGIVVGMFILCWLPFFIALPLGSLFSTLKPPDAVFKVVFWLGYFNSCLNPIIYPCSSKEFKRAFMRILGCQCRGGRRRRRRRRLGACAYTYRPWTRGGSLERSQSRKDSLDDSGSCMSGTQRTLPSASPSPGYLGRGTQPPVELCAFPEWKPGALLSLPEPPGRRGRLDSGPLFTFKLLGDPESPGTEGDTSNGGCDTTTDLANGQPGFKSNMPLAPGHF
Method: The compounds were assessed for alpha-adrenergic receptor subtype selectivity by use of radioligand binding techniques as described previously (DeBernardis et.al. J. Med. Chem. 28, 1398 (1985)).

Row | Compound | pKi
1 | COC(=O)[C@H]1[C@H]2C[C@H]3c4[nH]c5ccccc5c4CCN3C[C@H]2CC[C@@H]1O [Rauwolscine, reference compound] | 6.41

same assay, conditions: rat liver homogenates, [3H]-prazosin; read-out: Ki alpha-1

Row | pKi | Compound
2 | 6.28 | CN(CCc1cccc(F)c1)CC1CCCc2ccccc21 (stereo not drawn) [Example 70, 1-((N Methylamino)methyl-N-(2-(mfluorophenyl)ethyl))-tetralin hydrochloride]
3 | 6.02 | CCN(CCc1cccs1)CC1CCCc2c1ccc1c2OCO1 (stereo not drawn) [Example 164, 1-(N Ethylamino)methyl-N-(2-(2-thienyl)ethyl))-5,6-methylenedioxy tetralin hydrochloride]
4 | 6.02 | COc1ccc2c(c1)CCCC2CN(C)CCc1cccc(O)c1 (stereo not drawn) [Example 83, 1-((N-Methylamino)methyl-N-(2-(m-hydroxyphenyl)ethyl))-6-methoxy tetralin hydrochloride]
5 | 5.92 | COc1ccc2c(c1)CCCC2CN(C)CCc1cccn1C (stereo not drawn) [Example 12, 1-((N-Methylamino)methyl-N-(2-(N-methyl-2-pyrrolyl)ethyl))-6-methoxy tetralin fumarate]
6 | 5.93 | COc1ccc2c(c1)CCCC2CN(C)CCc1cccc(N)c1 (stereo not drawn) [Example 67, 1-((N-Methylamino)methyl-N-(2-(m-aminophenyl)ethyl))-6-methoxy tetralin dihydrochloride]
7 | 5.74 | CCCN(CCc1cccs1)CC1CCCc2cc(OC)ccc21 (stereo not drawn) [Example 58, 1-((N-Propylamino)methyl)-N-(2-(2-thienyl)ethyl))-6-methoxy tetralin hydrochloride]
8 | 6.33 | CN(CCc1cccs1)CC1CCCc2c1ccc1c2OCCO1 (stereo not drawn) [Example 30, 1-((N Methylamino)methyl-N-(2-(2-thienyl)ethyl))-5,6-ethylenedioxy tetralin hydrochloride]
9 | 6.30 | COc1ccc2c(c1)CCCC2CN(C)CCc1ccsc1 (stereo not drawn) [Example 6d, 1-((N-methylamino)methyl-N-(2-(3-thienyl)ethyl))-6-methoxy tetralin hydrochloride]
10 | 6.28 | CN(CCc1cccs1)CC1CCCc2c1ccc(O)c2I (stereo not drawn) [Example 115, 1-((N-Methylamino)methyl-N-(2-(2-thienyl)ethyl))-5-iodo-6-hydroxy tetralin hydrochloride]
11 | 6.16 | CN(CCc1cccs1)CC1CCCc2ccccc21 (stereo not drawn) [Example 22, 1-((N-Methylamino)methyl-N-(2-(2-thienyl)ethyl)) tetralin hydrochloride]
12 | 6.35 | CN(CCc1cccs1)CC1CCCc2c1ccc1c2OCO1 (stereo not drawn) [Example 23, 1-((N-Methylamino)methyl-N-(2-(2-thienyl)ethyl))-5,6-methylenedioxy tetralin hydrochloride]
13 | 6.31 | COc1ccc2c(c1OC)CCCC2CN(C)CCc1cccs1 (stereo not drawn) [Example 86, 1-((N-Methylamino)methyl-N-(2-(2-thienyl)ethyl))-5,6-dimethoxy tetralin hydrochloride]
14 | 6.31 | CN(CCc1cccc(O)c1)CC1CCCc2cc(O)ccc21 (stereo not drawn) [Example 82, 1-((N-Methylamino)methyl-N-(2-(m-hydroxyphenyl)ethyl))-6-hydroxy tetralin hydrochloride]
15 | 6.50 | CN(CCc1ccccc1)CC1CCCc2ccccc21 (stereo not drawn) [Example 88, 1-((N-Methylamino)methyl-N-(2-phenethyl))-tetralin hydrochloride]
16 | 6.06 | COc1cc2c(cc1F)C(CN(C)CCc1ccco1)CCC2 (stereo not drawn) [Example 141, 1-((N-methylamino)methyl-N-(2-(2-furyl)ethyl))-6-methoxy-7-fluoro tetralin methanesulfonate]
17 | 6.28 | COc1ccc2c(c1)C(CN(C)CCc1cccs1)CCC2 (stereo not drawn) [Example 27, 1-((N-Methylamino)methyl-N (2-(2-thienyl)ethyl))7-methoxy tetralin hydrochloride]

Row | Compound | pKi
18 | COc1ccc2c(c1)CCCC2CN(C)CCC1CCCC1 (stereo not drawn) [Example 6f, 1-((N methylamino)methyl -N-(2-(cyclopentyl)ethyl))-6-methoxy tetralin hydrochloride] | 5.67
